# According to ChEMBL document CHEMBL1126211, “Arylamides of hydroxylated isoquinolines as protein-tyrosine kinase inhibitors” (Bioorg Med Chem Lett, 1992):
# Assays:
# [1] = molecular target: Epidermal growth factor receptor (Homo sapiens, UniProt P00533); experiment: Inhibition of epidermal growth factor receptor (EGFR)
# [2] = molecular target: Tyrosine-protein kinase Lck (Homo sapiens, UniProt P06239); experiment: Inhibition of p56 lck tyrosine kinase
# Sequence of Tyrosine-protein kinase Lck (P06239 whole entry): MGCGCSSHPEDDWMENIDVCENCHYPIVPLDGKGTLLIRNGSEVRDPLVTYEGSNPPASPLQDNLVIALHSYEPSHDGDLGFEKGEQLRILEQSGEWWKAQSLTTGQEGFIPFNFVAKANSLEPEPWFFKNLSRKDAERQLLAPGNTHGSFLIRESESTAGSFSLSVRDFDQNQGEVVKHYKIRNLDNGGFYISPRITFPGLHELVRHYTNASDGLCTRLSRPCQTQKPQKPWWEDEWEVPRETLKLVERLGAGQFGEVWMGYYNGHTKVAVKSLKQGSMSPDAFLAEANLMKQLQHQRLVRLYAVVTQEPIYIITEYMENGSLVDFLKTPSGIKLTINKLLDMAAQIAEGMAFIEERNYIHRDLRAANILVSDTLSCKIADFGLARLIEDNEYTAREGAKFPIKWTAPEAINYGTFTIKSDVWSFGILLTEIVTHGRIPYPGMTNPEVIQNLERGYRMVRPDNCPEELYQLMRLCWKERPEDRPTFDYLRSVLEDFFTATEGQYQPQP
# Sequence of Epidermal growth factor receptor (P00533 whole entry): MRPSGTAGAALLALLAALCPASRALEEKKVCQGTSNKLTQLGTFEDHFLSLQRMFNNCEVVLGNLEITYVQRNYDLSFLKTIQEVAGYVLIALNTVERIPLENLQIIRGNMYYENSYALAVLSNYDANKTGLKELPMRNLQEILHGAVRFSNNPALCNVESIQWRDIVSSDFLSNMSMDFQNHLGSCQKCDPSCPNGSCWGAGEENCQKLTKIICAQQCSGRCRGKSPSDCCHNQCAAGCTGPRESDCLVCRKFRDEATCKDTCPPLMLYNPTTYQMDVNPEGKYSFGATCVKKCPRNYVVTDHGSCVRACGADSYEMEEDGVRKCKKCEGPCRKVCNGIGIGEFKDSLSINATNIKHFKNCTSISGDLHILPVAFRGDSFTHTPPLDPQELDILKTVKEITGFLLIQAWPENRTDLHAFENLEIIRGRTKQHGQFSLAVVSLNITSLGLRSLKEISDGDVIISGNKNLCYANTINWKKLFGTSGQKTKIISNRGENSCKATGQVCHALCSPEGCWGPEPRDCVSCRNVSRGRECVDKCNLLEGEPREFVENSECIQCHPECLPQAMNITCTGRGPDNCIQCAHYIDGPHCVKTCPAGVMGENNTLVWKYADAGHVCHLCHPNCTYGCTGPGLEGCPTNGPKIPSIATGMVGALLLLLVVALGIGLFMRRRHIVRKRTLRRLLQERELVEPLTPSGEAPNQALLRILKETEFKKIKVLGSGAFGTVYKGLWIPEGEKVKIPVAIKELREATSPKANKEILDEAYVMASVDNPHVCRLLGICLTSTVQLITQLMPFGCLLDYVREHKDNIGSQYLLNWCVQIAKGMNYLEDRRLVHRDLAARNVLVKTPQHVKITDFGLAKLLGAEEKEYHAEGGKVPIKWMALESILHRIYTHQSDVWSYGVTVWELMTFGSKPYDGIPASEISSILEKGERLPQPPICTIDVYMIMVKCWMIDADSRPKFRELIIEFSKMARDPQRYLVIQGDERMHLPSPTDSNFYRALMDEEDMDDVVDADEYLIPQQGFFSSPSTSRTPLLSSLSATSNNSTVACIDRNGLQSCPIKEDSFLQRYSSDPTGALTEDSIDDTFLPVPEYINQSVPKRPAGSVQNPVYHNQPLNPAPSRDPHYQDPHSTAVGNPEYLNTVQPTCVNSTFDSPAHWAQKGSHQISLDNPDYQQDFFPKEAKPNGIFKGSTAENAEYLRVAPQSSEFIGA
Compound,IC50 [1] [µM],IC50 [2] [µM]
N#C/C(=C\c1ccc(O)c(O)c1)C(N)=O,20,–
O=C(NCCc1ccccc1)c1cc2ccc(O)c(O)c2cn1,1.4,40
O=C(Nc1ccccc1)c1cc2cc(O)c(O)cc2cn1,5.6,600
O=C(NCc1ccccc1)c1cc2ccc(O)c(O)c2cn1,1.4,1
NC(=O)c1cc2ccc(O)c(O)c2cn1,> 100,0.5
O=C(NCc1ccccc1)c1cc2cc(O)c(O)cc2cn1,3.1,> 1000
NC(=O)c1cc2cc(O)c(O)cc2cn1,> 100,1900
O=C(Nc1ccccc1)c1cc2ccc(O)c(O)c2cn1,7.7,1
